Results on three compounds are retold here after US6642205B2, “Methods and compositions for reducing side effects in chemotherapeutic treatments” (Pro-Pharmaceuticals, Inc., priority 2000, dated 2003).

Data set [1] in a line: Side effects (deaths) after single dose intravenous injection in healthy mice, 20 days observation. It counts as in vivo, male BDF1 mice. The following applies: for Deaths per group / Life span after treatment (except survived animals): single i.v.; for Deaths per group: six animals each; for Life span after treatment (except survived animals): one value per dead animal; for toxicity compared to Adriamycin: healthy mice, single i.v. dose. From the text: Male BDF1 mice were used as the experimental animals for measuring side effects of therapeutic preparations. Mice were acclimated in the laboratory one week prior to experimentation. The animals were housed five per cage in a 12-hour light/dark cycle. The animals received filtered water and sterile rodent food ad libitum. The animals were observed daily and clinical signs were noted. Weight of the animals was in the range of 19-21 g at the day of treatment initiation. The mice were healthy, not previously used in other experimental procedures.

Data set [2] relates to lymphocyte leukemia P-388. In words: Antitumor effect on subcutaneously implanted lymphocyte leukemia P-388 in mice, single i.v. injection. It counts as in vivo, male BDF1 mice. Particulars: for Average weight gain/loss from day 1 to day 7 / Nonspecific deaths per group / Average survival time, excluding nonspecific deaths / Average survival time, including nonspecific deaths / average weight loss of an animal: single i.v.; for Nonspecific deaths per group / animals that lived longer than the duration of the study (20 days): six animals per group; for Average survival time, excluding nonspecific deaths / Average survival time, including nonspecific deaths: study duration 20 days; for toxicity compared to Adriamycin: tumor-bearing mice, nonspecific deaths. The protocol:
“Nonspecific death” is death of a treated tumor-bearing animal if its day of death was statistically less (P≦0.05) than the corresponding day of death of a tumor-bearing animal in the untreated control group.
The response of subcutaneously implanted lymphocyte leukemia P-388 (Arthur D. Little Inc., Cambridge, Mass.) to treatment with a Galactomycin I, Galactomycin II, and Doxorubicin was evaluated in male BDF1 mice.
Mice were acclimated in the laboratory one week prior to experimentation. The animals were housed five per cage in a 12-hour light/dark cycle. The animals received filtered water and sterile rodent food ad libitum. The animals were observed daily and clinical signs were noted. Weight of the animals was in the range of 19-21 g at the day of treatment initiation. The mice were healthy, not previously used in other experimental procedures.
There were a total of twelve groups, 10 animals in two control groups (saline only), and six animals in each in 10 agent treatment groups. The groups were treated 24 hours after tumor implantation, as follows:
Tumor cells were implanted in a sub-cutaneous injection of one million cells per mouse and allowed to grow for 24 hours. After that, Adriamycin, Galactomycin I and Galactomycin II were administered as 0.7-10 mg/mL solutions by a single i.v. injection.
Study duration was twenty days after tumor implantation, or nineteen days after treatment initiation.

By LD50 is commonly meant the dose at which mortality reaches 50%.

For the compound `COc1cccc2c1C(=O)c1c(O)c3c(c(O)c1C2=O)C[C@@](O)(C(=O)CO)C[C@@H]3O[C@H]1C[C@H](N)[C@H](O)[C@H](C)O1` [Adriamycin, 14-hydroxydaunomycin, reference compound], in data set [1] (dose 21 mg/kg), the Deaths per group entry is reported as “Three”. This compound also returned a Deaths per group in data set [1] (dose 21 mg/kg, listed as Doxorubicin) of 3. The LD50 at 20 days in data set [1] (male, BDF1, mouse, in vivo, intravenous, 21 mg/kg, single injection in mice, read-out: LD50 (estimated from Table 2 data)) is around 21 mg/kg. Besides, in data set [2] (dose 7 mg/kg), the “Average weight gain/loss from day 1 to day 7” value (“Average weight gain/loss” for short) was -0.5 g; the “Nonspecific deaths per group” value turned out to be 0; the “Average survival time, excluding nonspecific deaths” value worked out at 15.5 days; the “Average survival time, including nonspecific deaths” value is listed as 15.5 days. In data set [2] (dose 14 mg/kg), the “Average weight gain/loss” value is -1.8 g; the “average weight loss of an animal” value was determined as 1.8 g; the “Average survival time, excluding nonspecific deaths” value is listed as above 19 days; the “Average survival time, including nonspecific deaths” value was above 15 days. Besides, in data set [2] (dose 14 mg/kg), the “animals that lived longer than the duration of the study (20 days)” value was “two”.
For the compound `COc1cccc2c1C(=O)c1c(O)c3c(c(O)c1C2=O)CC(O)(C(=O)CO)CC3OC1CC(NCC(O)C(O)C(O)C(O)COC2OC(CO)C(O)C(O)C2O)C(O)C(C)O1` [Galactomycin I, N-[α-D-galactopyranosyl-(1→6)-β-O-D-sorbityl]doxorubicin], the Deaths per group in data set [1] (dose 10 mg/kg) stood at 0; in data set [1] (dose 15 mg/kg) it was 0; in data set [1] (dose 20 mg/kg), 0; in data set [1] (dose 25 mg/kg) it was 0; in data set [1] (dose 30 mg/kg), 0; in data set [1] (dose 40 mg/kg), 1. Besides, the Deaths per group in data set [1] (dose 80 mg/kg) and in data set [1] (dose 100 mg/kg) was 6 in each case. The “Life span after treatment (except survived animals)” value in data set [1] (dose 40 mg/kg) is given as 2 days. Besides, the “toxicity compared to Adriamycin” value in data set [1] and in data set [2] was “significantly less toxic” each time. Besides, in data set [1] (single injection in mice), the “LD50 (estimated from Table 2 data)” value is 50 to 60 mg/kg. In addition, the “Average weight gain/loss” value is “+1.7 g” in data set [2] (dose 7 mg/kg), “+2.3 g” in data set [2] (dose 14 mg/kg), -0.8 g in data set [2] (dose 20 mg/kg) and -0.9 g in data set [2] (dose 40 mg/kg). The “Nonspecific deaths per group” value in data set [2] (dose 7 mg/kg), in data set [2] (dose 14 mg/kg) and in data set [2] (dose 20 mg/kg) was 0 in each case. In addition, the “Average survival time, excluding nonspecific deaths” value in data set [2] (dose 7 mg/kg) was 11.7 days; in data set [2] (dose 14 mg/kg) it was 12.2 days; in data set [2] (dose 20 mg/kg), 16.3 days; in data set [2] (dose 40 mg/kg), above 18 days. Besides, the “Average survival time, including nonspecific deaths” value in data set [2] (dose 7 mg/kg) is 11.7 days; in data set [2] (dose 14 mg/kg), 12.2 days; in data set [2] (dose 20 mg/kg) it was 16.3 days; in data set [2] (dose 40 mg/kg), above 16 days. Also, in data set [2] (dose 40 mg/kg), the “average weight loss of an animal” value came out at 0.9 g. For the same compound, the “animals that lived longer than the duration of the study (20 days)” value in data set [2] (dose 40 mg/kg) is on record as “two”.
With `Br.COc1cccc2c1C(=O)c1c(O)c3c(c(O)c1C2=O)CC(O)(C(=O)CO)CC3OC1CC(NCC(O)C(O)C(OC2OC(CO)C(O)C(O)C2O)C(O)CO)C(O)C(C)O1` [Galactomycin II, N-[β-D-galactopyranosyl-(1→4)-β-O-D-sorbityl]doxorubicin], the Deaths per group in data set [1] (dose 15 mg/kg), in data set [1] (dose 20 mg/kg), in data set [1] (dose 25 mg/kg), in data set [1] (dose 30 mg/kg), in data set [1] (dose 40 mg/kg) and in data set [1] (dose 50 mg/kg) was 0 each time. Moreover, the Deaths per group in data set [1] (dose 80 mg/kg) came to 1; in data set [1] (dose 100 mg/kg) it was 3. Moreover, the “Life span after treatment (except survived animals)” value in data set [1] (dose 80 mg/kg) turned out to be 2 days. Also, the “toxicity compared to Adriamycin” value in data set [1] and in data set [2] was “significantly less toxic” in each case. The “LD50 (estimated from Table 2 data)” value in data set [1] (single injection in mice) is around 100 mg/kg. Further, the “Average weight gain/loss” value is “+4.3 g” in data set [2] (dose 7 mg/kg), “+0.8 g” in data set [2] (dose 14 mg/kg), -1.1 g in data set [2] (dose 40 mg/kg) and -1.0 g in data set [2] (dose 80 mg/kg). In addition, the “Nonspecific deaths per group” value in data set [2] (dose 7 mg/kg), in data set [2] (dose 14 mg/kg) and in data set [2] (dose 40 mg/kg) was 0 in each case. Also, the “Average survival time, excluding nonspecific deaths” value is listed as 11.7 days in data set [2] (dose 7 mg/kg), 12.0 days in data set [2] (dose 14 mg/kg), 15.0 days in data set [2] (dose 40 mg/kg) and above 18 days in data set [2] (dose 80 mg/kg). Moreover, the “Average survival time, including nonspecific deaths” value is on record as 11.7 days in data set [2] (dose 7 mg/kg), 12.0 days in data set [2] (dose 14 mg/kg), 15.0 days in data set [2] (dose 40 mg/kg) and above 16 days in data set [2] (dose 80 mg/kg). Further, in data set [2] (dose 80 mg/kg), the “average weight loss of an animal” value was 1.0 g. Also, in data set [2] (dose 80 mg/kg), the “animals that lived longer than the duration of the study (20 days)” value is given as “two”.
